This passage reports Ki results from US10160762B2, “6-alkyl dihydropyrazolopyrimidinone compounds as PDE2 inhibitors” (Merck Sharp & Dohme Corp., priority 2015, dated 2018).

For this experiment, the target named is T1, Rhesus PDE2A3 (Macaca mulatta, UniProt B3VTJ2).
T1 construct: made in house; host or cells: AD293 cells, transient transfection; supernatant of sonicated lysate
T1 sequence (B3VTJ2 1-941): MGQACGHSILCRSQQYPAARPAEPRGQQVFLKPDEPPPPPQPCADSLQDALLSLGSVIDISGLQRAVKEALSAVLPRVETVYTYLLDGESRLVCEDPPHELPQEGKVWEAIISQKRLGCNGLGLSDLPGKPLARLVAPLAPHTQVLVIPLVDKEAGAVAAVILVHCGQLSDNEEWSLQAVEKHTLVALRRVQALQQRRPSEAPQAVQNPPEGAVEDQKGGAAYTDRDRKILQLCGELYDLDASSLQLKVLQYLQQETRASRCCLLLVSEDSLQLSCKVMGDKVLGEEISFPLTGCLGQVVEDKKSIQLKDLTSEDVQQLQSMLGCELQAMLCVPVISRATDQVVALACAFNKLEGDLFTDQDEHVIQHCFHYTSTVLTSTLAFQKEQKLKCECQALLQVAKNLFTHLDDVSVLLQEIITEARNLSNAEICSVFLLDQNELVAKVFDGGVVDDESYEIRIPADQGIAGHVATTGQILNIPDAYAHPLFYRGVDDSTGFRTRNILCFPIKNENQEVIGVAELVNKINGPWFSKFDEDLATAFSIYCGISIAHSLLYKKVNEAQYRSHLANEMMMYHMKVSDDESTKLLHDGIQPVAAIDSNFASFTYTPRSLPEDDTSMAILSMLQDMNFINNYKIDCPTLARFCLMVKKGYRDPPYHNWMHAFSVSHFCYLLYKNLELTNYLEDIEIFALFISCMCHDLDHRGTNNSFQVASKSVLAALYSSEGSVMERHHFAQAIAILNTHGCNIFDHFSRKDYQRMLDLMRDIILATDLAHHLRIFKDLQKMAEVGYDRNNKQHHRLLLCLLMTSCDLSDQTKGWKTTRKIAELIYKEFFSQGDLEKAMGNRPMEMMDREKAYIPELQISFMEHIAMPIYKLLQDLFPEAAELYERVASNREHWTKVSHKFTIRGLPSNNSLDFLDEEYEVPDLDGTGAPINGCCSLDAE
In words: PDE2 fluorescence polarization (IMAP FP) inhibition assay, rhesus PDE2A3. The class given is biochemical, rhesus macaque. An outline of the steps:
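Enzyme source was the lysate supernatant of AD293 cells transiently expressing rhesus PDE2A3, diluted to give 20% conversion of 50 nM FAM-cAMP, with 1 µM cGMP as activator. Buffer was 10 mM Tris pH 7.2, 10 mM MgCl2, 1 mM DTT.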

Setting [1] is: Lab A, read-out: Rhesus PDE2 Ki (nM) Lab A.
Setting [2] is: Lab B, read-out: Rhesus PDE2 Ki (nM) Lab B.

Where two headings read alike, the source gives them in different places.

Turning to `Cc1nc2c(c(CO)nn2C(C)c2ccc(C3CC3)cc2)c(=O)[nH]1` (stereo not shown) [Example 3, 1-(1-(4-Cyclopropylphenl)ethyl)-3-(hydroxymethyl)-6-methyl-1H-pyrazolo[3,4-d]pyrimidin-4(5H)-one], the Ki runs as follows: under setting [1], 1.8 nM; under setting [2], 5.6 nM.
As to `Cc1nc2c(c(CF)nn2C(C)c2ccc(C(C)(C)C)cc2)c(=O)[nH]1` (single isomer, unassigned) [Example 214, (R)- or (S)-1-(1-(4-tert-Butylphenyl)ethyl)-3-(fluoromethyl)-6-methyl-1H-pyrazolo[3,4-d]pyrimidin-4(5H)-one], the inhibitory constant (Ki) reads like this: under setting [1], 179 nM; under setting [2], 318 nM.
Turning to `Cc1nc(-c2nc3c(c(C)nn3C(C)c3ccc(C(F)(F)F)cc3)c(=O)[nH]2)c(C)o1` (stereo not shown) [Example 54, 6-(2,5-Dimethyl-1,3-oxazol-4-yl)-3-methyl-1-{1-[4-(trifluoromethyl)phenyl]ethyl}-1,5-dihydro-4H-pyrazolo[3,4-d]pyrimidin-4-one], the Ki under setting [1] was found to be 32 nM.
Consider `Cc1nc2c(c(CO)nn2C(C)c2ccc(C(F)(F)F)cc2)c(=O)[nH]1` (single isomer, unassigned) [Example 26, (R)- or (S)-3-(Hydroxymethyl)-6-methyl-1-{1-[4-(trifluoromethyl)phenyl]ethyl}-1,5-dihydro-4H-pyrazolo[3,4-d]pyrimidin-4-one], for which the Ki was 216 nM under setting [1] and 456 nM under setting [2].
In the case of `Cc1nc2c(c(CO)nn2C(c2ccc(C(F)(F)F)cc2)C(F)(F)F)c(=O)[nH]1` (stereo not shown) [Example 6, 3-(Hydroxymethyl)-6-methyl-1-(2,2,2-trifluoro-1-(4-(trifluoromethyl)phenyl)ethyl)-1H-pyrazolo[3,4-d]pyrimidin-4(5H)-one], the inhibitory constant (Ki) is, setting by setting: under setting [1], 1.6 nM; under setting [2], 3.5 nM.
With `CCc1nc2c(c(C)nn2C(C)c2ccc(C(F)(F)F)cc2)c(=O)[nH]1` (stereo not shown) [Example 38, 6-Ethyl-3-methyl-1-{1-[4-(trifluoromethyl)phenyl]ethyl}-1,5-dihydro-4H-pyrazolo[3,4-d]pyrimidin-4-one], the inhibition constant Ki under setting [1] turned out to be 58 nM.
The same measure, in the same setting: as for `Cc1nn(C(C)c2ccc(C(F)(F)F)cc2)c2nc(CF)[nH]c(=O)c12` (stereo not shown) [Example 51, 6-(Fluoromethyl)-3-methyl-1-{1-[4-(trifluoromethyl)phenyl]ethyl}-1,5-dihydro-4H-pyrazolo[3,4-d]pyrimidin-4-one], the figure is 79 nM.
On to `Cc1nc2c(c(CO)nn2C(C)c2ccc(OC(F)(F)F)c(F)c2)c(=O)[nH]1` (single isomer, unassigned) [Example 11, (S)- or (R)-1-(1-(3-Fluoro-4-(trifluoromethoxy)phenyl)ethyl)-3-(hydroxymethyl)-6-methyl-1H-pyrazolo[3,4-d]pyrimidin-4(5H)-one], for which the Ki reads like this: under setting [1], 0.85 nM; under setting [2], 2 nM.
As to `COc1ccc(Cc2nc3c(c(C)nn3C(C)c3ccc(C(F)(F)F)cc3)c(=O)[nH]2)cc1OC` (stereo not shown) [Example 44, 6-(3,4-Dimethoxybenzyl)-3-methyl-1-{1-[4-(trifluoromethyl)phenyl]ethyl}-1,5-dihydro-4H-pyrazolo[3,4-d]pyrimidin-4-one], the Ki under setting [1] turned out to be 4.8 nM.
As for `Cc1nc2c(c(CF)nn2C(C)c2ccc(C(C)(C)C)cc2)c(=O)[nH]1` (single isomer, unassigned) [Example 215, (S)- or (R)-1-(1-(4-tert-Butylphenyl)ethyl)-3-(fluoromethyl)-6-methyl-1H-pyrazolo[3,4-d]pyrimidin-4(5H)-one], the Ki is 0.24 nM under setting [1] and 0.63 nM under setting [2].
In the case of `Cc1nc2c(c(CO)nn2C(c2ccc(C(F)(F)F)c(F)c2)C(C)(C)C)c(=O)[nH]1` (single isomer, unassigned) [Example 129, (S)- or (R)-1-(1-(3-Fluoro-4-(trifluoromethyl)phenyl)-2,2-dimethylpropyl)-3-(hydroxyl-methyl)-6-methyl-1H-pyrazolo-[3,4-d]pyrimidin-4(5H)-one], the Ki under setting [2] is 6.9 nM.
Still for that read-out and setting: then `Cc1nc2c(c(CF)nn2C(C)c2ccc(CC(F)(F)F)cc2)c(=O)[nH]1` (single isomer, unassigned) [Example 211, (S)- or (R)-3-(Fluoromethyl)-6-methyl-1-(1-(4-(2,2,2-trifluoroethyl)phenyl)ethyl)-1H-pyrazolo[3,4-d]pyrimidin-4(5H)-one], with 0.49 nM.
For `Cc1nc2c(c(CO)nn2C(c2ccc(C(F)(F)F)cc2)C2CC2)c(=O)[nH]1` (stereo not shown) [Example 28, 1-(Cyclopropyl(4-(trifluoromethyl)phenyl)methyl)-3-(hydroxymethyl)-6-methyl-1H-pyrazolo[3,4-d]pyrimidin-4(5H)-one], the Ki amounted to 0.75 nM under setting [1] and 2.2 nM under setting [2].
As to `Cc1nc2c(c(CO)nn2C(C)c2ccc(C(F)(F)F)c(F)c2)c(=O)[nH]1` (single isomer, unassigned) [Example 13, (S)- or (R)-1-(1-(3-Fluoro-4-(trifluoromethyl)phenyl)ethyl)-3-(hydroxymethyl)-6-methyl-1H-pyrazolo[3,4-d]pyrimidin-4(5H)-one], the Ki runs as follows: under setting [1], 1.3 nM; under setting [2], 3 nM.
Taken in the same sequence, the figures for `Cc1nc2c(c(CF)nn2C(C)c2ccc(C(F)(F)F)c(F)c2)c(=O)[nH]1` (stereo not shown) [Example 230, 1-(1-(3-Fluoro-4-(trifluoromethyl)phenyl)ethyl)-3-(fluoromethyl)-6-methyl-1H-pyrazolo[3,4-d]pyrimidin-4(5H)-one] were 2.3 nM and 3.4 nM.
With `Cc1nc2c(c(CO)nn2C(c2ccc(C(F)(F)F)cc2)C(C)C)c(=O)[nH]1` (stereo not shown) [Example 5, 3-(Hydroxymethyl)-6-methyl-1-(2-methyl-1-(4-(trifluoromethyl)phenyl)propyl)-1H-pyrazolo[3,4-d]pyrimidin-4(5H)-one], the Ki is, setting by setting: under setting [1], 0.62 nM; under setting [2], 1 nM.
On to `COCc1nc2c(c(C)nn2C(C)c2ccc(C(F)(F)F)cc2)c(=O)[nH]1` (stereo not shown) [Example 48, 6-(Methoxymethyl)-3-methyl-1-{1-[4-(trifluoromethyl)phenyl]ethyl}-1,5-dihydro-4H-pyrazolo[3,4-d]pyrimidin-4-one], for which the Ki under setting [1] came to 36 nM.
For the molecule `Cc1nn(C(C)c2ccc(C(F)(F)F)cc2)c2nc(C3CCCC3)[nH]c(=O)c12` (stereo not shown) [Example 40, 6-Cyclopentyl-3-methyl-1-{1-[4-(trifluoromethyl)phenyl]ethyl}-1,5-dihydro-4H-pyrazolo[3,4-d]pyrimidin-4-one], the inhibition constant (Ki) under setting [1] worked out at 340 nM.
Consider `Cc1nc2c(c(CO)nn2C(C)c2ccc(C(F)(F)F)cc2)c(=O)[nH]1` (stereo not shown) [Example 7, 3-(Hydroxymethyl)-6-methyl-1-(1-(4-(trifluoromethyl)phenyl)ethyl)-1H-pyrazolo[3,4-d]pyrimidin-4(5H)-one], for which, under setting [1], the Ki was found to be 19 nM.
As for `Cc1nc2c(c(CO)nn2C(c2ccc(OC(F)(F)F)cc2)C2CC2)c(=O)[nH]1` (single isomer, unassigned) [Example 94, (R)- or (S)-1-(Cyclopropyl(4-(trifluoromethoxy)phenyl)methyl)-3-(hydroxymethyl)-6-methyl-1H-pyrazolo[3,4-d]pyrimidin-4(5H)-one], under setting [2], the Ki is 18 nM.
Still for that read-out and setting: then `Cc1nc2c(c(C(F)F)nn2C(C)c2ccc(C(F)(F)F)cc2)c(=O)[nH]1` (single isomer, unassigned) [Example 176], with 1.4 nM.
Consider `Cc1nc2c(c(CF)nn2C(C)c2ccc(OC(F)(F)F)c(F)c2)c(=O)[nH]1` (single isomer, unassigned) [Example 217, (S)- or (R)-1-(1-(3-Fluoro-4-(trifluoromethoxy)phenyl)ethyl)-3-(fluoromethyl)-6-methyl-1H-pyrazolo[3,4-d]pyrimidin-4(5H)-one], for which the Ki amounted to 0.39 nM under setting [1] and 0.53 nM under setting [2].
As to `Cc1nc2c(c(C(C)(C)O)nn2C(C)c2ccc(C(F)(F)F)cc2)c(=O)[nH]1` (stereo not shown) [Example 326, 3-(1-Hydroxy-1-methylethyl)-6-methyl-1-{1-[4-(trifluoromethyl)phenyl]ethyl}-1,5-dihydro-4H-pyrazolo[3,4-d]pyrimidin-4-one], the Ki under setting [1] was 134 nM.
As for `Cc1nc2c(c(CF)nn2C2(c3ccc(C(F)(F)F)cc3)CCC2)c(=O)[nH]1` [Example 202, 3-(Fluoromethyl)-6-methyl-1-(1-(4-(trifluoromethyl)phenyl)cyclobutyl)-1H-pyrazolo[3,4-d]pyrimidin-4(5H)-one], the Ki under setting [2] stood at 3.1 nM.
Take `Cc1nc2c(c(CF)nn2C(C)c2ccc(OC(F)(F)F)cc2)c(=O)[nH]1` (single isomer, unassigned) [Example 206, (R)- or (S)-3-(Fluoromethyl)-6-methyl-1-(1-(4-(trifluoro-methoxy-)phenyl)ethyl)-1H-pyrazolo[3,4-d]pyrimidin-4(5H)-one]: the Ki by setting is: under setting [1], 41 nM; under setting [2], 123 nM.
